The source of these data is patent US7605154B2, “Substituted Thiazolo [4,5-d]pyrimidines as protein kinase inhibitors” (Janssen Pharmaceutica N.V., priority 2005, dated 2009).

Where “and” joins values, the source holds several entries; their conditions need not be identical. Equal entries are not always repeated. Bounds are passed on as bounds.

For assay [1], the system named is SK-OV-3. Kind of assay: Cell Proliferation Inhibition Assay (14C-thymidine incorporation), SK-OV-3. It counts as cell-based. The settings on record: Homo sapiens. Here is the method: (§1) The ability of a test compound to inhibit unregulated cell proliferation may be determined by measuring incorporation of ^14C-labelled thymidine into newly synthesized DNA within cell lines derived from carcinomas originating from several tissues. Accordingly, the anti-proliferative effect of a compound on cells with a variety of phenotypes may be determined.
The carcinoma cells are trypsinized and counted. The cells (3000-8000 count) are added to each well of a 96-well CytoStar tissue culture treated scintillating microplate (Amersham #RPNQ0160) in complete medium (100 μL) and the plate is then incubated in complete medium for 24 hrs at 37° C. in an inert atmosphere containing 5% CO2. Test compound (1 μL) in 100% DMSO is added to the plate test-wells with DMSO only added to control-wells.
The plate contents are then discarded, the plate is washed twice with PBS (200 μL) and then PBS (200 μL) is added to each well. The plate is sealed and the degree of methyl ^14C-thyrnidine incorporation is quantified on a Packard Top Count.
A general note: Incorporation of labelled thymidine or its analogues reports DNA synthesis.

Another assay deals with T1, EGFR (Homo sapiens, UniProt P00533).
T1 construct: started at nucleotide 2189 (corresponding to amino acid 667) and ended at the termination codon; made in house; host or cells: Sf9 insect cells (baculovirus)
T1 sequence (P00533 667-1210 limits assumed): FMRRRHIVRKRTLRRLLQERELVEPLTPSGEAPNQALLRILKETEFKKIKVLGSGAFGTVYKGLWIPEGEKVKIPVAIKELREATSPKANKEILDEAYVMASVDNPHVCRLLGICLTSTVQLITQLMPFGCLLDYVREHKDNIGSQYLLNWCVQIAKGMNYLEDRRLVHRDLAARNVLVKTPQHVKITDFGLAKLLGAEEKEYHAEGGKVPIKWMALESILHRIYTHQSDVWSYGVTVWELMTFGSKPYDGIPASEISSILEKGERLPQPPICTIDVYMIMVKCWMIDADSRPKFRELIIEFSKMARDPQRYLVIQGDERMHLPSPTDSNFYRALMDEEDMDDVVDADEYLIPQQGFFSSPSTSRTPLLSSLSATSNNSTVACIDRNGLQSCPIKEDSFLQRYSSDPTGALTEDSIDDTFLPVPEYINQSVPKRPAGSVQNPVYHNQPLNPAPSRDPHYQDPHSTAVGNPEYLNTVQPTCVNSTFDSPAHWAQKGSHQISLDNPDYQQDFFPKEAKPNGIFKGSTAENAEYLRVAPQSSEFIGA
Kind of assay: EGFR Kinase Assay. It counts as biochemical. Particulars: GST-EGFR, 5 μM ATP. In a few lines: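 Baculovirus/Sf9-expressed GST-EGFR with biotinylated polyGluTyr substrate, 5 μM ATP plus γ-33P-ATP, in 50 mM Tris pH 8.0, 10 mM MgCl2, 0.1 mM vanadate, 1 mM DTT; 1 h at 30 °C.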

The next assay concerns HeLa. The assay can be described thus: Cell Proliferation Inhibition Assay (14C-thymidine incorporation), HeLa. It counts as cell-based. The settings on record: Homo sapiens.
Text: as §1
(§2) Carcinoma cell lines include those such as HeLa cervical adenocarcinoma (American Type Culture Collection (ATCC), Virginia, Cat. #CCL-2), A375 malignant melanoma (ATCC CRL-1619), SK-OV-3 ovarian adenocarcinoma (ATCC HTB-77), HCT-116 colon carcinoma (CCL-247), PC-3 prostate adenocarcinoma (ATCC CRL-1435), and MDA-MB-231 (Xenogen Corp.)
(§3) The carcinoma cells are trypsinized and counted. […]
(§4) An aliquot of a solution of Methyl ^14C-thymidine (56 mC/mmol) (NEN #NEC568 or Amersham #CFA532) and complete medium (20 uL to provide 0.2 μCi/well) is then added to each well and the plate is incubated for a third 24 hr period at 37° C. in an atmosphere containing 5% CO2. […] The plate is sealed and the degree of methyl ^14C-thyrnidine incorporation is quantified on a Packard Top Count.

In assay [2] the test system is SK-OV-3. The assay can be described thus: SK-OV-3 Cell Migration Inhibition. Format: cell-based. The settings on record: several values in a cell are repeat determinations.
The next assay concerns HCT-116. Kind of assay: Cell Proliferation Inhibition Assay (14C-thymidine incorporation), HCT-116. It counts as cell-based. Particulars: Homo sapiens.
Text: as §1, §2, §3, §4

A further assay has as its system A375. The assay can be described thus: Cell Proliferation Inhibition Assay (14C-thymidine incorporation), A375. It counts as cell-based. The settings on record: Homo sapiens, A-375.
Text: as §1, §2, §3, §4

In a further assay the target is T2, Lyn kinase (Homo sapiens, UniProt P07948).
T2 construct: purchased Upstate biotechnology, Lake Placid, N.Y
T2 sequence (P07948 whole entry): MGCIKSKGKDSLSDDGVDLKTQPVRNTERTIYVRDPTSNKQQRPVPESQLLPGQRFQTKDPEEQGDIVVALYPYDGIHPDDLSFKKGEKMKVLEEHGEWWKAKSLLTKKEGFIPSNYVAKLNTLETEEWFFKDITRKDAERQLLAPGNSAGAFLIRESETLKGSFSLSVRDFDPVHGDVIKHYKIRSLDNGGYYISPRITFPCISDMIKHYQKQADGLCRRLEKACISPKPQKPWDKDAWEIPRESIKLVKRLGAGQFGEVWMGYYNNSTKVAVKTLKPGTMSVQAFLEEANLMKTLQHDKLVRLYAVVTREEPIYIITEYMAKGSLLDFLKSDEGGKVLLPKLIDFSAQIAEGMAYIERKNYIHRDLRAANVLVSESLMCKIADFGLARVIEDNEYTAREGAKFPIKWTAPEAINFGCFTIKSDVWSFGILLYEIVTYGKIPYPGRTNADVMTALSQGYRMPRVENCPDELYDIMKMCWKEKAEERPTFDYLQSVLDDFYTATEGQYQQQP
The assay can be described thus: Lyn Kinase Assay. Particulars: test concentration of 1 μM. Format: biochemical. Here is the method:
A mixture of a 10× kinase buffer (500 mM MOPS at pH 7.5, 1 mM EGTA, 1 mM Sodium Vanadate, 1% β-mercaptoethanol and 100 mM Magnesium Acetate), ATP (5 μM final from a 10 mM stock), polyGluTyr (0.1 mg/mL final from a 1 mg/mL stock), γ-^33P ATP (10 μCi/μL stock) and water (20 μL/well) was added to each well of a Streptavidin Flashplate.
Test compound in 100% DMSO (0.5 μL) was added to the appropriate wells. Diluted Lyn kinase (human) (Upstate biotechnology, Lake Placid, N.Y) (diluted in a buffer consisting of 50 mM Tris at pH 7.5, 0.1 mM EGTA, Sodium Vanadate (0.1 mM), β-mercaptoethanol (0.1%) and 1 mg/mL bovine serum albumin) (2.5 μL) was added to the wells to initiate the reactions.
The reaction plates were incubated at 30° C. for 40 min. The reaction was terminated by the addition of a 3% phosphoric acid solution (5 μL). The reaction product (10 μL) was spotted onto a P30 filtermat and washed for 5 minutes in phosphoric acid (75 mM). The wash sequence was repeated two more times, followed with one final wash in methanol. The plates were then dried, sealed and read on the TopCount scintillation counter after adding 30 μL scintillation fluid.
Percent inhibition was derived according to the procedure described in Example 5. The results for those compounds tested are shown in Table 3 at a test concentration of 1 μM.

A further assay deals with T3, c-Src kinase (Homo sapiens, UniProt P12931).
T3 construct: purchased Upstate Biotechnology, Lake Placid, N.Y
T3 sequence (P12931 whole entry): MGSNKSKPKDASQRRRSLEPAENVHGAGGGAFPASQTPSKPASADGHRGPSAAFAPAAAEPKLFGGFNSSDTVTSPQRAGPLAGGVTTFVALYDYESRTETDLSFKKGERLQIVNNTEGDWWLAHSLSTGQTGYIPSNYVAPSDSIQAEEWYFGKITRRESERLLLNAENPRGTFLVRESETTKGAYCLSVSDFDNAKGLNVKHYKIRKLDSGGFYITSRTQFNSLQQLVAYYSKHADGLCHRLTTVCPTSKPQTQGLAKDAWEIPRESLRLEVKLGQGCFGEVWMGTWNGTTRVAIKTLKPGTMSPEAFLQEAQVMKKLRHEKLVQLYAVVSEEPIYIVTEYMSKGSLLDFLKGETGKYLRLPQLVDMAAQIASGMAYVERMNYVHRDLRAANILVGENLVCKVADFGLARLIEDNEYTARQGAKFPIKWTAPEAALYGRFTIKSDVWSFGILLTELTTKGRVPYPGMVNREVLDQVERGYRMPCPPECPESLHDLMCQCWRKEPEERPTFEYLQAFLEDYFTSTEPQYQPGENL
Kind of assay: c-Src Kinase Assay. Format: biochemical. The settings on record: test concentration of 1 μM. The method, then: A mixure of a 10× kinase buffer (80 mM MOPS at pH 7.0, 2 mM EDTA and 100 mM Magnesium Chloride), ATP (5 μM final from a 10 mM stock), a Cdc2 peptide […] (100 μM final from a 2.5 mM stock), γ-^33P ATP (10 μCi/μL stock) and water (20 μL/well) was added to each well of a Streptavidin Flashplate.
Test compound in 100% DMSO (0.5 μL) was added to the appropriate wells. Diluted c-Src kinase (human) (Upstate Biotechnology, Lake Placid, N.Y.) (diluted in a buffer consisting of 20 mM MOPS at pH 7.0, 1 mM EDTA, β-mercaptoethanol (0.1%), Brij-35 (0.01%), glycerol (5%), and 1 mg/mL bovine serum albumin) (2.5 μL) was added to the wells to initiate the reactions. The reaction plates were incubated at 30° C. for 40 min. The reaction was terminated by the addition of a 3% phosphoric acid solution (5 μL). The reaction product (10 μL) was spotted onto a P30 filtermat and washed for 5 minutes in phosphoric acid (75 mM). The wash sequence was repeated two more times, followed with one final wash in methanol. The plates were then dried, sealed and read on the TopCount scintillation counter after adding 30 μL scintillation fluid.
Percent inhibition was derived according to the procedure described in Example 5. The results for those compounds tested are shown in Table 2 at a test concentration of 1 μM.

A further assay addresses T4, HER-2 (Homo sapiens, UniProt P04626).
T4 construct: the nucleotides encoding amino acids 679 to 1255 of HER-2; HIS6-Thrombin (His6 tag with thrombin site) (N); purchased Proqinase (Freiburg, Germany)
Kind of assay: HER-2 Kinase Assay. Format: biochemical. The settings on record: GST-HER2, 1 μM ATP. The method, then: The HER-2 kinase used was purified at Proqinase (Freiburg, Germany) from a construct that consisted of a fusion of GST (Glutathione-S-Transferase), HIS6-Thrombin and the nucleotides encoding amino acids 679 to 1255 of HER-2.
A mixture of a 10× kinase reaction buffer (600 mM Hepes at pH 7.5, 30 mM Magnesium Chloride, 0.03 mM Sodium Vanadate and […] PEG 20,000), DTT (1.2 mM final from a 10 mM stock), ATP (1 μM from a 10 mM stock), biotinylated polyGluTyr (1.5 ng/μL final from stock of 1 μg/μL prepared by Upstate Biotechnologies, Lake Placid, N.Y.), Manganese Chloride (3 mM final from a 1 M stock), γ-^33P-ATP (10 μCi/μL stock) and water (70 μL/well) was added to each well of a Streptavidin Flashplate (Cat. # SMP103, NEN, Boston, Mass.).
Test compound stock (1 μL) was added to the appropriate wells. Diluted GSTHER2 kinase (6.7 ng/μL diluted into 50 mM Tris-HCl at pH 8.0 and 0.1% bovine serum albumin) (30 μL) was added (total volume of 200 ng/well) to initiate the reactions.
The reaction plates were incubated at 30° C. for 1 hr. The reaction was terminated by aspirating the reaction mixture from the plate wells and washing the wells three times with a 1×PBS stop buffer (300 μL) and 100 mM EDTA. After the final wash, the same stop buffer (200 μL) was again added to the wells. The plates were then sealed and read on the TopCount scintillation counter. […]

T4 sequence (P04626 679-1255): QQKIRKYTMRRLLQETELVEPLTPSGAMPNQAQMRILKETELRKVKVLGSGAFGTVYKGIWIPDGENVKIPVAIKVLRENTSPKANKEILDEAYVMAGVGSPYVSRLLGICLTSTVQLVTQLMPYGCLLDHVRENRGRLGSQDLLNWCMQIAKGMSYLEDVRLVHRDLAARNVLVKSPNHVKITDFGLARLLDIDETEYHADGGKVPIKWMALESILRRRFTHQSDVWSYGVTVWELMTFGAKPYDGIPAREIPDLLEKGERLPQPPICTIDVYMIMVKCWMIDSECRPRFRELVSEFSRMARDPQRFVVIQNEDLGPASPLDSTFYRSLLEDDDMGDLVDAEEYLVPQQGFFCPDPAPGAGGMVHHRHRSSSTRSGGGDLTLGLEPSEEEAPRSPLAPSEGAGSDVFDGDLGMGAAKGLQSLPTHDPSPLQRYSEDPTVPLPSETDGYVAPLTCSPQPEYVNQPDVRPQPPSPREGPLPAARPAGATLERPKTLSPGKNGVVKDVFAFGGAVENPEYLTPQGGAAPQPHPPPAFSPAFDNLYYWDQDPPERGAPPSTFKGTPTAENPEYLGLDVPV

Usually IC50 stands for the concentration needed to halve the response being measured. Read a low IC50 as greater potency in that assay. For the compound `Fc1ccc(Nc2ncnc3nc(Nc4ccc(CN5CCCCC5)cc4)sc23)cc1Cl` [Cpd 2, N^7-(3-chloro-4-fluoro-phenyl)-N^2-(4-piperidin-1-ylmethyl-phenyl)-thiazolo[4,5-d]pyrimidine-2,7-diamine], the IC50 came out at 490 nM in the assay with SK-OV-3 [1] and 8.9 nM on EGFR.
For `CN(C)CCc1ccc(Nc2nc3ncnc(Nc4ccc(F)c(Cl)c4)c3s2)cc1` [Cpd 11, N^7-(3-chloro4-fluoro-phenyl)-N^2-[4-(2-dimethylamino-ethyl)-phenyl]-thiazolo[4,5-d]pyrimidine-2,7-diamine] the same measures were 600 nM and 12.8 nM.
In the same order, the values of `Fc1ccc(Nc2ncnc3nc(Nc4ccc(CN5CCCC5)cc4)sc23)cc1Cl` [Cpd 17, N^7-(3-chloro-4-fluoro-phenyl)-N^2-(4-pyrrolidin-1-ylmethyl-phenyl)-thiazolo[4,5-d]pyrimidine-2,7-diamine] are 620 nM and 4.2 nM.
In the case of `Fc1ccc(Nc2ncnc3nc(Nc4ccc(CN5CCOCC5)cc4)sc23)cc1Cl` [Cpd 18, N^7-(3-chloro-4-fluoro-phenyl)-N^2-(4-morpholin-4-ylmethyl-phenyl)-thiazolo[4,5-d]pyrimidine-2,7-diamine], the IC50 is more than 100000 nM in the assay on HeLa; 186 nM with SK-OV-3 [2] (Homo sapiens, SK-OV-3, SK-OV-3 migration); 156 nM and 141 nM in the assay on SK-OV-3 [2] (SK-OV-3 migration); more than 100000 nM in the assay with HCT-116; 15.4 nM on EGFR; more than 100000 nM in the assay on A375.
Usually inhibition stands for how much of the control response was suppressed. Higher therefore signals a response far below the control. As to `C#Cc1cccc(Nc2ncnc3nc(Nc4ccc(CNCC(O)CO)cc4)sc23)c1` (centres unmarked) [Cpd 66, 3-{4-[7-(3-ethynyl-phenylamino)-thiazolo[4,5-d]pyrimidin-2-ylamino]-benzylamino}-propane-1,2-diol], the inhibition at 1 µM at Lyn kinase was 25%; against c-Src kinase it was 15%. This compound came in with a half-maximal inhibitory concentration (IC50) at EGFR of 7.28 nM.
On to `CN1CCN(Cc2ccc(Nc3nc4ncnc(Nc5ccc(OCc6cccc(F)c6)c(Cl)c5)c4s3)cc2)CC1` [Cpd 68, N^7-[3-chloro-4-(3-fluoro-benzyloxy)-phenyl]-N^2-[4-(4-methyl-piperazin-1-ylmethyl)-phenyl]-thiazolo[4,5-d]pyrimidine-2,7-diamine], for which the half-inhibitory concentration (IC50) in the assay on HeLa came out at 2190 nM; in the assay on HCT-116, 3080 nM; against EGFR it was 20.3 nM; in the assay with A375 it was 2030 nM; against HER-2, 276 nM.
In the case of `NS(=O)(=O)c1ccc(Nc2nc3ncnc(Nc4ccc(F)c(Cl)c4)c3s2)cc1` [Cpd 73, 4-[7-(3-chloro-4-fluoro-phenylamino)-thiazolo[4,5-d]pyrimidin-2-ylamino]-benzenesulfonamnide], 1 µM produced 65% inhibition against c-Src kinase.
Turning to `CN1CCN(Cc2ccc(Nc3nc4ncnc(Nc5ccc(Oc6ccccc6)cc5)c4s3)cc2)CC1` [Cpd 94, N^2-[4-(4-methyl-piperazin-1-ylmethyl)-phenyl]-N^7-(4-phenoxy-phenyl)-thiazolo[4,5-d]pyrimidine-2,7-diamine], the half-maximal inhibitory concentration (IC50) at EGFR is 319 nM; against HER-2, 1870 nM.
